From patent US7897780B2, “Method for controlling phytopathogenic fungi using silylated carboxamides” (Bayer CropScience AG, priority 2004, dated 2011)

Tested on: not listed separately
Test: log P determination by HPLC on reversed-phase column (EEC Directive 79/831 Annex V.A8)
Format: physicochemical
Conditions: reversed-phase C18 HPLC column, pH 2.3, C18, 43° C., 0.1% aqueous phosphoric acid/acetonitrile gradient
Method: The given log P values were determined in accordance with EEC Directive 79/831 Annex V.A8 by HPLC (High Performance Liquid Chromatography) on a reversed-phase column (C 18). Temperature: 43° C. Mobile phases for the determination in the acidic range (pH 2.3): 0.1% aqueous phosphoric acid, acetonitrile; linear gradient from 10% acetonitrile to 90% acetonitrile. Calibration was carried out using unbranched alkan-2-ones (having 3 to 16 carbon atoms) with known logP values (determination of the logP values by the retention times using linear interpolation between two successive alkanones). The lambda max values were determined in the maxima of the chromatographic signals using the UV spectra from 200 nm to 400 nm.
`C[Si](C)(C)CCc1sccc1N` [Example (III-1), 2-(2-trimethylsilanylethyl)thiophen-3-ylamine] showed a chromatographic logP of 1.78.
`C[Si](C)(C)CCc1sccc1NC(=O)c1cccnc1Cl` [Example 1, 2-chloro-N-{2-[2-(trimethylsilyl)ethyl]-3-thienyl}nicotinamide] showed a chromatographic logP of 3.65.

Tested on: Venturia inaequalis
Test: Venturia test (apple)/protective
Format: in vivo
Conditions: protective spray, application rate 100 g/ha, evaluation 10 days after inoculation
Method: (§1) To produce a suitable preparation of active compound, 1 part by weight of active compound is mixed with the stated amounts of solvents and emulsifier, and the concentrate is diluted with water to the desired concentration.
To test for protective activity, young plants are sprayed with the preparation of active compound at the stated application rate. After the spray coating has dried on, the plants are inoculated with an aqueous conidia suspension of the apple scab pathogen Venturia inaequalis and then remain in an incubation cabin at about 20° C. and 100% relative atmospheric humidity for 1 day.
The plants are then placed in a greenhouse at about 21° C. and a relative atmospheric humidity of about 90%.
(§2) Evaluation is carried out 10 days after the inoculation. 0% means an efficacy which corresponds to that of the control, whereas an efficacy of 100% means that no infection is observed.
In the case of `Cn1cc(C(=O)Nc2ccsc2CC[Si](C)(C)C)c(I)n1` [drawing 89], the Efficacy in % is reported as 100%.
In the case of `Cn1cc(C(=O)Nc2ccsc2CC[Si](C)(C)C)c(C(F)F)n1` [drawing 86], the Efficacy in % is reported as 100%.
With `Cc1nn(C)c(F)c1C(=O)Nc1ccsc1CC[Si](C)(C)C` [drawing 87] the Efficacy in % was 100%.
For `Cn1cc(C(=O)Nc2ccsc2CC[Si](C)(C)C)c(C(F)(F)F)c1` [drawing 88], the Efficacy in % was 99%.
With `Cn1cc(C(=O)Nc2ccsc2CC[Si](C)(C)C)c(C(F)(F)F)n1` [drawing 85] the Efficacy in % was 100%.
In the case of `Cc1nc(C(F)F)c(C(=O)Nc2ccsc2CC[Si](C)(C)C)s1` [drawing 84], the Efficacy in % is reported as 100%.

Tested on: Botrytis cinerea
Test: Botrytis test (bean)/protective
Format: in vivo
Conditions: protective spray, application rate 500 g/ha, evaluation 2 days after inoculation
Method: as §1
To test for protective activity, young plants are sprayed with the preparation of active compound at the stated application rate. After the spray coating has dried on, 2 small pieces of agar colonized by Botrytis cinerea are placed onto each leaf. The inoculated plants are placed in a dark chamber at about 20° C. and 100% atmospheric humidity.
The size of the infected areas of the leaves is evaluated 2 days after the inoculation. 0% means an efficacy which corresponds to that of the control, whereas an efficacy of 100% means that no infection is observed.
Work on `Cn1cc(C(=O)Nc2ccsc2CC[Si](C)(C)C)c(C(F)(F)F)n1` [drawing 91] yielded an Efficacy in % of 100%.
`Cc1nn(C)c(F)c1C(=O)Nc1ccsc1CC[Si](C)(C)C` [drawing 93] showed an Efficacy in % of 100%.
`Cc1nc(C(F)F)c(C(=O)Nc2ccsc2CC[Si](C)(C)C)s1` [drawing 90] showed an Efficacy in % of 100%.
`Cn1cc(C(=O)Nc2ccsc2CC[Si](C)(C)C)c(I)n1` [drawing 95] gave an Efficacy in % of 100%.
Compound `Cn1cc(C(=O)Nc2ccsc2CC[Si](C)(C)C)c(C(F)F)n1` [drawing 92] has an Efficacy in % of 100%.
In the case of `Cn1cc(C(=O)Nc2ccsc2CC[Si](C)(C)C)c(C(F)(F)F)c1` [drawing 94], the Efficacy in % is reported as 100%.

Tested on: Sphaerotheca fuliginea
Test: Sphaerotheca test (cucumber)/protective
Format: in vivo
Conditions: protective spray, application rate 100 g/ha, evaluation 7 days after inoculation
Method: as §1
(§3) To test for protective activity, young plants are sprayed with the preparation of active compound at the stated application rate. After the spray coating has dried on, the plants are inoculated with an aqueous spore suspension of Sphaerotheca fuliginea. The plants are then placed in a greenhouse at about 23° C. and a relative atmospheric humidity of about 70%.
Evaluation was carried out 7 days after the inoculation. 0% means an efficacy which corresponds to that of the control, whereas an efficacy of 100% means that no infection is observed.
In the case of `Cn1cc(C(=O)Nc2ccsc2CC[Si](C)(C)C)c(C(F)F)n1` [drawing 80], the Efficacy in % is reported as 100%.
Compound `Cn1cc(C(=O)Nc2ccsc2CC[Si](C)(C)C)c(C(F)(F)F)c1` [drawing 82] has an Efficacy in % of 100%.
Work on `Cc1nn(C)c(F)c1C(=O)Nc1ccsc1CC[Si](C)(C)C` [drawing 81] yielded an Efficacy in % of 100%.
With `Cn1cc(C(=O)Nc2ccsc2CC[Si](C)(C)C)c(C(F)(F)F)n1` [drawing 79] the Efficacy in % was 100%.
`Cn1cc(C(=O)Nc2ccsc2CC[Si](C)(C)C)c(I)n1` [drawing 83] showed an Efficacy in % of 98%.
`Cc1nc(C(F)F)c(C(=O)Nc2ccsc2CC[Si](C)(C)C)s1` [drawing 78] gave an Efficacy in % of 100%.

Tested on: Podosphaera leucotricha
Test: Podosphaera test (apple)/protective
Format: in vivo
Conditions: protective spray, application rate 100 g/ha, evaluation 10 days after inoculation
Method: as §1
as §3, with “the apple mildew pathogen Podosphaera leucotricha.” for “Sphaerotheca fuliginea.”
as §2
Compound `Cn1cc(C(=O)Nc2ccsc2CC[Si](C)(C)C)c(C(F)(F)F)n1` [drawing 74] has an Efficacy in % of 100%.
`Cc1nn(C)c(F)c1C(=O)Nc1ccsc1CC[Si](C)(C)C` [drawing 76] showed an Efficacy in % of 100%.
For `Cn1cc(C(=O)Nc2ccsc2CC[Si](C)(C)C)c(C(F)(F)F)c1` [drawing 77], the Efficacy in % was 99%.
`Cn1cc(C(=O)Nc2ccsc2CC[Si](C)(C)C)c(C(F)F)n1` [drawing 75] showed an Efficacy in % of 100%.
`Cc1nc(C(F)F)c(C(=O)Nc2ccsc2CC[Si](C)(C)C)s1` [drawing 73] showed an Efficacy in % of 100%.

Tested on: Alternaria mali
Test: In vitro test for the ED50 determination in microorganisms
Format: cell-based
Conditions: 50% inhibition of fungal growth, potato dextrose medium, 20° C., 3-5 days, photometric 620 nm, tested at 0.05, 0.5, 5 and 50 ppm
Method: A methanolic solution of the active compound to be tested, admixed with emulsifier PS16, is pipetted into the wells of a microtitre plate. After the solvent has evaporated, 200 μl of potato dextrose medium are added to each well. Beforehand, a suitable concentration of spores or mycelium of the fungus to be tested was added to the medium. The resulting concentrations of active compound are 0.05, 0.5, 5 and 50 ppm. The resulting concentration of the emulsifier is 300 ppm.
The plates are then incubated on a shaker at a temperature of 20° C. for 3-5 days, until sufficient growth can be observed in the untreated control.
Evaluation is carried out photometrically at a wavelength of 620 nm. The dose of active compound which causes 50% inhibition of fungal growth compared to the untreated control (ED50) is calculated from data measured at different concentrations.
`C[Si](C)(C)CCc1sccc1NC(=O)c1cccnc1Cl` [drawing 103] gave an ED50 value of under 0.05 ppm.
`Cn1cc(C(=O)Nc2ccsc2CC[Si](C)(C)C)c(C(F)F)n1` [drawing 105] showed an ED50 value of under 0.05 ppm.
With `Cc1nc(C(F)F)c(C(=O)Nc2ccsc2CC[Si](C)(C)C)s1` [drawing 101] the ED50 value was under 0.05 ppm.
For `Cn1cc(C(=O)Nc2ccsc2CC[Si](C)(C)C)c(C(F)(F)F)c1` [drawing 104], the ED50 value was under 0.05 ppm.
In the case of `Cn1cc(C(=O)Nc2ccsc2CC[Si](C)(C)C)c(C(F)(F)F)n1` [drawing 100], the ED50 value is reported as under 0.05 ppm.
`C[Si](C)(C)CCc1sccc1NC(=O)c1ccccc1C(F)(F)F` gave an ED50 value of under 0.05 ppm.

Tested on: Puccinia recondita
Test: Puccinia test (wheat)/protective
Format: in vivo
Conditions: protective spray, application rate 500 g/ha, evaluation 10 days after inoculation
Method: To produce a suitable preparation of active compound, 1 part by weight of active compound is mixed with the stated amounts of solvent and emulsifier, and the concentrate is diluted with water to the desired concentration.
To test for protective activity, young plants are sprayed with the preparation of active compound at the stated application rate. After the spray coating has dried on, the plants are sprayed with a conidia suspension of Puccinia recondita. The plants remain in an incubation cabin at 20° C. and 100% relative atmospheric humidity for 48 hours.
The plants are then placed in a greenhouse at a temperature of about 20° C. and a relative atmospheric humidity of 80% to promote the development of rust pustules.
as §2
With `Cn1cc(C(=O)Nc2ccsc2CC[Si](C)(C)C)c(C(F)F)n1` [drawing 98] the Efficacy in % was 100%.
Work on `Cc1nc(C(F)F)c(C(=O)Nc2ccsc2CC[Si](C)(C)C)s1` [drawing 96] yielded an Efficacy in % of 100%.
Work on `Cn1cc(C(=O)Nc2ccsc2CC[Si](C)(C)C)c(C(F)(F)F)n1` [drawing 97] yielded an Efficacy in % of 100%.
For `Cc1nn(C)c(F)c1C(=O)Nc1ccsc1CC[Si](C)(C)C` [drawing 99], the Efficacy in % was 100%.
